Results published in patent US20200069648A1, “HALOALLYLAMINE PYRAZOLE DERIVATIVE INHIBITORS OF LYSYL OXIDASES AND USES THEREOF” (Pharmaxis Ltd., priority 2017, published 2020).
Where a name gives a salt, the structure may show the parent alone.

Key:
Recombinant human MAO-B = target: T1, Recombinant human MAO-B (Homo sapiens, UniProt P27338); experiment: Human recombinant MAO-B inhibition; assay type: biochemical; settings: benzylamine 100 μM
T1 construct: purchased Sigma Aldrich
T1 sequence (P27338 1-520): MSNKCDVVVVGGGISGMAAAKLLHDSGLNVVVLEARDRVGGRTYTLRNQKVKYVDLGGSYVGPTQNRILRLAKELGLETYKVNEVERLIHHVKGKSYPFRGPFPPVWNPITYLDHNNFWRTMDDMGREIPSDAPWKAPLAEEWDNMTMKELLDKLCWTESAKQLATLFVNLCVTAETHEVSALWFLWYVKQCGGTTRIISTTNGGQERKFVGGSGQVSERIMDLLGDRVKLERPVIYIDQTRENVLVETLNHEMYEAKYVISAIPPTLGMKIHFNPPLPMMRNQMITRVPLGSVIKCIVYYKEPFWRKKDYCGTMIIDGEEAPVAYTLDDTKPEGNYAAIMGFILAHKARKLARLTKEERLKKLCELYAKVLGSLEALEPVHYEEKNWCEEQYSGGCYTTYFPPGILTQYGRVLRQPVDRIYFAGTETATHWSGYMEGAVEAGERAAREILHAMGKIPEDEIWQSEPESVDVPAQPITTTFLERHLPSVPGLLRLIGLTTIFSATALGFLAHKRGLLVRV
Description: Method to Determine the Ability of Compounds of Formula I to Inhibit Human Recombinant MAO-B
The specificity of the compounds of this invention was tested by determining their ability to inhibit MAO-B activities in vitro. Recombinant human MAO-B (0.06 mg/mL; Sigma Aldrich) was used as source of MAO-B enzyme activities. The assay was performed in a similar way as for human SSAO/VAP-1 (Example 46) except, the substrate benzylamine was used at 100 μM.

Bovine LOX = target: T2, Bovine LOX (Bos taurus, UniProt P33072); experiment: LOX amine oxidase inhibition, peroxidase-coupled Amplex Red assay; assay type: biochemical; settings: 30 min preincubation at 37° C., putrescine substrate
T2 sequence (P33072 170-418): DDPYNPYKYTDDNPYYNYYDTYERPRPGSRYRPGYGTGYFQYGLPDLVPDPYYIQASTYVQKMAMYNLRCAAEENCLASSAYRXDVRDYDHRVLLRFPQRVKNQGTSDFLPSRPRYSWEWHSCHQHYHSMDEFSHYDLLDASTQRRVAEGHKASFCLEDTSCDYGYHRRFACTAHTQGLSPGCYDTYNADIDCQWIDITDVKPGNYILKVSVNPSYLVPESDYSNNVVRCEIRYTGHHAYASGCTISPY
From the text: Method to Determine the Ability of Compounds of the Invention to Inhibit LOX and LOXL1-4 from Different Sources
Lysyl oxidase (LOX) is an extracellular copper dependent enzyme which oxidizes peptidyl lysine and hydroxylysine residues in collagen and lysine residues in elastin to produce peptidyl alpha-aminoadipic-delta-semialdehydes. […] There are five LOX family members; these are LOX, LOXL1, LOXL2, LOXL3 and LOXL4. LOX and LOXL family members can be acquired as recombinant active proteins from commercial sources, or extracted from animal tissues like bovine aorta, tendons, pig skin; or prepared from cell cultures. The inhibitory effects of the compounds of the present invention were tested against the given LOX-LOXL preparation using a high-throughput coupled colorimetric method (Holt A. and Palcic M., A peroxidase-coupled continuous absorbance plate-reader assay for flavin monoamine oxidases, copper-containing amine oxidases and related enzymes. Nat. Protoc. 2006; 1: 2498-2505). The assay was developed using either 384 or 96 well format. Briefly, in a standard 384 well plate assay 25 μL of a dilution of any of the isoenzymes and orthologues in 1.2 M urea, 50 mM sodium borate buffer (pH 8.2) were added into each well in the presence of 1 μM mofegiline and 0.5 mM pargyline (to inhibit SSAO and MAO-B and MAO-A, respectively). […] Twenty five μL of a reaction mixture containing twice the KM concentration of putrescine (Sigma Aldrich, e.g. 20 mM for LOX, or 10 mM for LOXL2 and LOXL3), 120 μM Amplex Red (Sigma Aldrich) and 1.5 U/mL horseradish peroxidase (Sigma Aldrich) prepared in 1.2 M urea, 50 mM sodium borate buffer (pH 8.2) were then added to the corresponding wells. The above volumes were doubled in the case of 96 wells plate. The fluorescence (RFU) was read every 2.5 min for 30 min at a range of temperatures from 37° to 45° C., excitation 565 nm and emission 590 (Optima; BMG labtech). The slope of the kinetics for each well was calculated using MARS data analysis software (BMG labtech) and this value was used to deduce the IC50 value (Dotmatics).

Structure (SMILES) | IC50 (Recombinant human MAO-B) | IC50 (Bovine LOX)
Cc1nn(C/C(F)=C/CN)c(C(C)O)c1Cc1ccc(S(=O)(=O)N(C)C)c(Cl)c1 (single isomer, unassigned) [Compound 52, (Z)-4-((1-(4-amino-2-fluorobut-2-en-1-yl)-5-(1-hydroxyethyl)-3-methyl-1H-pyrazol-4-yl)methyl)-2-chloro-N,N-dimethylbenzenesulfonamide hydrochloride] | > 30 µM | > 10 µM
Cc1nn(C/C(F)=C/CN)c(C(C)O)c1Cc1ccc(S(=O)(=O)N(C)C)c(Cl)c1 (single isomer, unassigned) [Compound 53, (Z)-4-((1-(4-amino-2-fluorobut-2-en-1-yl)-5-(1-hydroxyethyl)-3-methyl-1H-pyrazol-4-yl)methyl)-2-chloro-N,N-dimethylbenzenesulfonamide hydrochloride] | > 30 µM | > 10 µM
N#CCCN [BAPN, β-aminopropionitrile, reference compound] | > 100 µM | < 1 µM
CN(C)S(=O)(=O)c1ccc(-c2cnn(C/C(F)=C/CN)c2)cc1 [Compound 1, (Z)-4-(1-(4-amino-2-fluorobut-2-en-1-yl)-1H-pyrazol-4-yl)-N,N-dimethyl benzenesulfonamide hydrochloride] | > 10 µM | < 10 µM
Cc1nn(C/C(F)=C/CN)c(C)c1Cc1ccc(S(=O)(=O)N(C)C)cc1 [Compound 2, (Z)-4-((1-(4-amino-2-fluorobut-2-en-1-yl)-3,5-dimethyl-1H-pyrazol-4-yl)methyl)-N,N-dimethylbenzenesulfonamide hydrochloride] | > 30 µM | < 10 µM
Cc1nn(C/C(F)=C/CN)c(C)c1Cc1ccc(S(=O)(=O)N(C)C)cc1Cl [Compound 3, (Z)-4-((1-(4-amino-2-fluorobut-2-en-1-yl)-3,5-dimethyl-1H-pyrazol-4-yl)methyl)-3-chloro-N,N-dimethylbenzenesulfonamide hydrochloride] | > 30 µM | < 10 µM
Cc1nn(C/C(F)=C/CN)c(C)c1Cc1cccc(S(=O)(=O)N(C)C)c1 [Compound 5, (Z)-3-((1-(4-amino-2-fluorobut-2-en-1-yl)-3,5-dimethyl-1H-pyrazol-4-yl)methyl)-N,N-dimethyl benzenesulfonamide hydrochloride] | > 30 µM | > 10 µM
Cc1nn(C/C(F)=C/CN)c(C)c1Cc1ccc(S(=O)(=O)N2CCOCC2)cc1 [Compound 6, (Z)-4-(3,5-dimethyl-4-(4-(morpholinosulfonyl)benzyl)-1H-pyrazol-1-yl)-3-fluorobut-2-en-1-amine hydrochloride] | > 30 µM | < 10 µM
Cc1nn(C/C(F)=C/CN)c(C)c1Cc1ccc(S(=O)(=O)NC(C)C)cc1 [Compound 11, (Z)-4-((1-(4-amino-2-fluorobut-2-en-1-yl)-3,5-dimethyl-1H-pyrazol-4-yl)methyl)-N-isopropyl benzenesulfonamide hydrochloride] | > 30 µM | < 10 µM
CC(C)c1nn(C/C(F)=C/CN)c(C(C)O)c1Cc1ccc(S(=O)(=O)N(C)C)c(Cl)c1 (centres unmarked) [Compound 59, (Z)-4-((1-(4-amino-2-fluorobut-2-en-1-yl)-5-(1-hydroxyethyl)-3-isopropyl-1H-pyrazol-4-yl)methyl)-2-chloro-N,N-dimethylbenzenesulfonamide hydrochloride] |  | > 10 µM
Cc1nn(C/C(F)=C/CN)c(C(=O)NC(C)(C)C)c1Cc1ccc(S(=O)(=O)N(C)C)c(Cl)c1 [Compound 62, (Z)-1-(4-amino-2-fluorobut-2-en-1-yl)-N-(tert-butyl)-4-(3-chloro-4-(N,N-dimethylsulfamoyl)benzyl)-3-methyl-1H-pyrazole-5-carboxamide hydrochloride] |  | < 10 µM

Further lines, results first:

IC50 (Recombinant human MAO-B) | IC50 (Bovine LOX) | Structure (SMILES)
> 30 µM | < 10 µM | Cc1nn(C/C(F)=C/CN)c(C)c1Cc1ccc(S(C)(=O)=O)cc1 [Compound 4, (Z)-4-(3,5-dimethyl-4-(4-(methylsulfonyl)benzyl)-1H-pyrazol-1-yl)-3-fluorobut-2-en-1-amine hydrochloride]
> 30 µM | < 10 µM | Cc1nn(C/C(F)=C/CN)c(C)c1Cc1ccc(S(=O)(=O)N2CCCC2)cc1 [Compound 7, (Z)-4-(3,5-dimethyl-4-(4-(pyrrolidin-1-ylsulfonyl)benzyl)-1H-pyrazol-1-yl)-3-fluorobut-2-en-1-amine hydrochloride]
> 30 µM | < 10 µM | Cc1nn(C/C(F)=C/CN)c(C)c1Cc1ccc(S(=O)(=O)N(C)C(C)C)cc1 [Compound 8, (Z)-4-((1-(4-amino-2-fluorobut-2-en-1-yl)-3,5-dimethyl-1H-pyrazol-4-yl)methyl)-N-isopropyl-N-methylbenzenesulfonamide hydrochloride]
> 10 µM | < 10 µM | Cc1nn(C/C(F)=C/CN)c(C)c1Cc1ccc(S(=O)(=O)N(C)C)c2ccccc12 [Compound 9, (Z)-4-((1-(4-amino-2-fluorobut-2-en-1-yl)-3,5-dimethyl-1H-pyrazol-4-yl)methyl)-N,N-dimethyl naphthalene-1-sulfonamide hydrochloride]
> 10 µM | < 10 µM | Cc1nn(Cc2ccc(S(=O)(=O)N(C)C)cc2)c(C)c1C/C(F)=C/CN [Compound 10, (Z)-4-((4-(4-amino-2-fluorobut-2-en-1-yl)-3,5-dimethyl-1H-pyrazol-1-yl)methyl)-N,N-dimethylbenzenesulfonamide hydrochloride]
> 30 µM | < 10 µM | Cc1nn(C/C(F)=C/CN)c(C)c1Cc1ccc(S(C)(=O)=O)cc1Cl [Compound 12, (Z)-4-(4-(2-chloro-4-(methylsulfonyl)benzyl)-3,5-dimethyl-1H-pyrazol-1-yl)-3-fluorobut-2-en-1-amine hydrochloride]
> 30 µM | < 10 µM | CCc1nn(C/C(F)=C/CN)c(CC)c1Cc1ccc(S(=O)(=O)N(C)C)cc1 [Compound 13, (Z)-4-((1-(4-amino-2-fluorobut-2-en-1-yl)-3,5-diethyl-1H-pyrazol-4-yl)methyl)-N,N-dimethyl benzenesulfonamide hydrochloride]
> 30 µM | < 10 µM | Cc1nn(C/C(F)=C/CN)c(C)c1Cc1ccc(C(=O)N(C)C)cc1 [Compound 14, (Z)-4-((1-(4-amino-2-fluorobut-2-en-1-yl)-3,5-dimethyl-1H-pyrazol-4-yl)methyl)-N,N-dimethylbenzamide hydrochloride]
 | < 10 µM | CC(C)c1nn(C/C(F)=C/CN)c(C(C)C)c1Cc1ccc(S(=O)(=O)N(C)C)c(Cl)c1 [Compound 60, (Z)-4-((1-(4-amino-2-fluorobut-2-en-1-yl)-3,5-diisopropyl-1H-pyrazol-4-yl)methyl)-2-chloro-N,N-dimethylbenzenesulfonamide hydrochloride]
 | > 10 µM | Cc1nn(C/C(F)=C/CN)c(C(=O)N(C)C)c1Cc1ccc(S(=O)(=O)N(C)C)c(Cl)c1 [Compound 61, (Z)-1-(4-amino-2-fluorobut-2-en-1-yl)-4-(3-chloro-4-(N,N-dimethylsulfamoyl)benzyl)-N,N,3-trimethyl-1H-pyrazole-5-carboxamide hydrochloride]
